From patent US9107446B2, “Solubilizates of preservatives and method for producing the same” (AQUANOVA AG, priority 2006, dated 2015)
Where two headings read alike, the source gives them in different places.

What was measured:
[1] = cited from earlier work
Saccharomyces cerevisae = conditions: pH 6.2, room temperature; for Bacteria Count: 0.4 ml yeast solution
[2] = in water; cited from earlier work
bacteria = conditions: 500 mg added to nutrient solution with agar; about three weeks contact time

C/C=C/C=C/C(=O)O [Sorbic Acid]
Anion, dis. ([1]; pH Value 3): 1.7%
Anion, dis. ([1]; pH Value 4.0): 14.7%
Anion, dis. ([1]; pH Value 5.0): 63%

O=C(O)c1ccccc1 [Benzoic Acid]
Anion, dis. ([1]; pH Value 3): 6%
Anion, dis. ([1]; pH Value 3.5): 16.7%
Anion, dis. ([1]; pH Value 4.0): 38.7%
Anion, dis. ([1]; pH Value 5.0): 86.5%
Bacteria Count (Saccharomyces cerevisae; Benzoic Acid Concentration 10 ppm, After 3 days): 1,650,000/ml
Bacteria Count (Saccharomyces cerevisae; Benzoic Acid Concentration 10 ppm, After 7 days): 1,200,000/ml
Bacteria Count (Saccharomyces cerevisae; Benzoic Acid Concentration 10 ppm, After 15 days): 800,000/ml
Bacteria Count (Saccharomyces cerevisae; Benzoic Acid Concentration 10 ppm, After 22 days): 1,100,000/ml
Bacteria Count (Saccharomyces cerevisae; Benzoic Acid Concentration 10 ppm, After 29 days): 1,300,000/ml
Bacteria Count (Saccharomyces cerevisae; Benzoic Acid Concentration 10 ppm, Initial): 2,900/ml
Bacteria Count (Saccharomyces cerevisae; Benzoic Acid Concentration 50 ppm, After 3 days): 1,900,000/ml
Bacteria Count (Saccharomyces cerevisae; Benzoic Acid Concentration 50 ppm, After 7 days): 1,100,000/ml
Bacteria Count (Saccharomyces cerevisae; Benzoic Acid Concentration 50 ppm, After 15 days): 900,000/ml
Bacteria Count (Saccharomyces cerevisae; Benzoic Acid Concentration 50 ppm, After 22 days): 930,000/ml
Bacteria Count (Saccharomyces cerevisae; Benzoic Acid Concentration 50 ppm, After 29 days): 1,300,000/ml
Bacteria Count (Saccharomyces cerevisae; Benzoic Acid Concentration 50 ppm, Initial): 2,900/ml
Bacteria Count (Saccharomyces cerevisae; Benzoic Acid Concentration 100 ppm, After 3 days): 670,000/ml
Bacteria Count (Saccharomyces cerevisae; Benzoic Acid Concentration 100 ppm, After 7 days): 530,000/ml
Bacteria Count (Saccharomyces cerevisae; Benzoic Acid Concentration 100 ppm, After 15 days): 600,000/ml
Bacteria Count (Saccharomyces cerevisae; Benzoic Acid Concentration 100 ppm, After 22 days): 1,200,000/ml
Bacteria Count (Saccharomyces cerevisae; Benzoic Acid Concentration 100 ppm, After 29 days): 900,000/ml
Bacteria Count (Saccharomyces cerevisae; Benzoic Acid Concentration 100 ppm, Initial): 2,900/ml
Bacteria Count (Saccharomyces cerevisae; Benzoic Acid Concentration 200 ppm, After 3 days): 510,000/ml
Bacteria Count (Saccharomyces cerevisae; Benzoic Acid Concentration 200 ppm, After 7 days): 430,000/ml
Bacteria Count (Saccharomyces cerevisae; Benzoic Acid Concentration 200 ppm, After 15 days): 350,000/ml
Bacteria Count (Saccharomyces cerevisae; Benzoic Acid Concentration 200 ppm, After 22 days): 400,000/ml
Bacteria Count (Saccharomyces cerevisae; Benzoic Acid Concentration 200 ppm, After 29 days): 400,000/ml
Bacteria Count (Saccharomyces cerevisae; Benzoic Acid Concentration 200 ppm, Initial): 2,900/ml
Bacteria Count (Saccharomyces cerevisae; Benzoic Acid Concentration 300 ppm, After 3 days): 630,000/ml
Bacteria Count (Saccharomyces cerevisae; Benzoic Acid Concentration 300 ppm, After 7 days): 400,000/ml
Bacteria Count (Saccharomyces cerevisae; Benzoic Acid Concentration 300 ppm, After 15 days): 520,000/ml
Bacteria Count (Saccharomyces cerevisae; Benzoic Acid Concentration 300 ppm, After 22 days): 250,000/ml
Bacteria Count (Saccharomyces cerevisae; Benzoic Acid Concentration 300 ppm, After 29 days): 230,000/ml
Bacteria Count (Saccharomyces cerevisae; Benzoic Acid Concentration 300 ppm, Initial): 2,900/ml
Bacteria Count (Saccharomyces cerevisae; Benzoic Acid Concentration 500 ppm, After 3 days): 700 mL⁻¹
Bacteria Count (Saccharomyces cerevisae; Benzoic Acid Concentration 500 ppm, After 7 days): 55,000/ml
Bacteria Count (Saccharomyces cerevisae; Benzoic Acid Concentration 500 ppm, After 15 days): 230,000/ml
Bacteria Count (Saccharomyces cerevisae; Benzoic Acid Concentration 500 ppm, After 22 days): 120,000/ml
Bacteria Count (Saccharomyces cerevisae; Benzoic Acid Concentration 500 ppm, After 29 days): 43,000/ml
Bacteria Count (Saccharomyces cerevisae; Benzoic Acid Concentration 500 ppm, Initial): 2,900/ml
yeast growth (in words) (Saccharomyces cerevisae; benzoic acid concentration of 500 ppm, after 29 days of contact time): high yeast growth

C/C=C/C=C/C(=O)[O-].[K+] [Potassium Sorbate]
Solubility, Water [2]: 138 g/100 g
Bacteria Count (bacteria): 1.6×10^10
